Structures can show the parent of a compound that is named as a salt.
Columns and labels:
[1] = system: phenylbenzoquinone-induced writhing; assay: phenylbenzoquinone-induced writhing test in mice (analgesic activity); type: in vivo; conditions: ratio of activity relative to the parent NSAID; oral gavage 1 hour prior to i.p. phenylbenzoquinone; male CD-1 mice
Description: The phenylbenzoquinone-induced writhing test in mice was used to measure analgesic activity. The ability of the compounds to inhibit phenylbenzoquinone-induced writhing in mice was measured using the method of Siegmund et al, Proc. Soc. Exp. Biol. Med. 95: 729-731, 1957. Male CD-1 mice (Charles River Laboratories, Wilmington, Mass.) weighing 20-25 g were fasted overnight. Vehicle or compounds were administered by oral gavage 1 hour prior to i.p. injection of 2 mg/kg of phenylbenzoquinone. Five minutes after the i.p. injection of phenylbenzoquinone, the number of writhes in a 5 minute period was counted.

gastric lesion = assay: rat gastric lesion test; type: in vivo, rats
Description: The rat gastric lesion test, described by Kitagawa et al, J. Phirmacol. Exp. Ther., 253:1133-1137 (1990), and Al-Ghamdi et al, J. Int. Med. Res., 19:2242 (1991), was used to evaluate the activity of compounds to produce gastric lesion. Male Sprague Dawley rats (Charles River Laboratories, Wilmington, Mass.) weighing 230-250 g were used for the experiments. The rats were housed with laboratory chow and water ad libitum prior to the study. The rats were fasted for 24 hours with free access to water and then dosed by oral gavage with vehicle or with test compounds given at a volume of 0.5 mL/100 g. Food was withheld for 18 hours after the initial dosing. Rats were euthanized by CO2 eighteen hours after dosing. The stomachs were dissected along the greater curvature, washed with a directed stream of 0.9% saline and pinned open on a sylgard based petri dish for examination of the hemorrhagic lesion. Gastric lesion score was expressed in mm and calculated by summning the length of each lesion.

[2] = system: carrageenan rat paw edema; assay: rat paw edema test (antiinflammatory activity); type: in vivo; conditions: ratio of activity relative to the parent NSAID; oral gavage one hour prior to carrageenan; paw volume three hours later; male Sprague-Dawley rats
Description: The rat paw edema test was used to measure antiinflammatory activity. The rat paw edema test was performed according to the method of Winter et al, Proc. Soc. Exp. Biol. Med. 111: 544-547, 1962. Male Sprague-Dawley rats (250-275 g) were fasted overnight and dosed by oral gavage with vehicle or suspensions of compound one hour prior to the subplantar injection of 50 μl of 1% suspension of carrageenan. Three hours later, the paw volume was measured and compared with the initial volume measured immediately after carrageenan injection.

[3] = ratio of activity relative to the parent NSAID, oral gavage, fasted rats, eighteen hours after dosing
[4] = 100 μmole/Kg, ratio of activity relative to the parent NSAID, oral gavage, fasted rats, eighteen hours after dosing

Compound | melting point | Relative Activity Gastric Lesion (gastric lesion; rat, in vivo, po) | Relative Activity Gastric Lesion (gastric lesion; [4]) | Relative Activity Analgesia [1] | Relative Activity Gastric Lesion (gastric lesion; [3]) | Relative Activity Antiinflammation [2]
2-{2-[(2,6-Dichlorophenyl)amino]phenyl}-1-[2-(methyl{[(nitrosothio) cyclohexyl]methyl}amino)ethylthio]ethan-1-one [Example 32] | – | – | – | 1 | – | –
O=C(O)Cc1ccccc1Nc1c(Cl)cccc1Cl [Diclofenac, diclofenac, reference compound] | – | – | – | 1 | 1 | 1
CC1(SN=O)CCN(CCOC(=O)Cc2ccccc2Nc2c(Cl)cccc2Cl)CC1.Cl [Example 1, 2-[4-Methyl-4-(nitrosothio)piperidyl]ethyl 2-{2-[(2,6-dichlorophenyl)amino]phenyl}acetate hydrochloride] | – | – | – | 1.5 | 0.1 | 1.2
CN(CCOC(=O)Cc1ccccc1Nc1c(Cl)cccc1Cl)CC1(SN=O)CCCCC1.Cl [Example 2, 2-(Methyl{[(nitrosothio)cyclohexyl]methyl}amino)ethyl 2-{2-[(2,6-dichlorophenyl)amino]phenyl}acetate hydrochloride] | – | – | – | 1 | 0.02 | 1.2
Cl.O=NSC1(CCOC(=O)Cc2ccccc2Nc2c(Cl)cccc2Cl)CCNCC1 [Example 6, 2-[4-(Nitrosothio)-4-piperdyl]ethyl 2-{2-[(2,6-dichlorophenyl)amino]phenyl}acetate hydrochloride] | – | – | – | – | 0.02 | –
CC(C)(CN1CCN(CCOC(=O)Cc2ccccc2Nc2c(Cl)cccc2Cl)CC1)SN=O.O=C(O)CC(O)(CC(=O)O)C(=O)O [Example 8, 2-{4-[2-Methyl-2-(nitrosothio)propyl]piperazinyl}ethyl 2-{2-[(2,6-dichlorophenyl)amino]phenyl}acetate citrate] | – | – | – | 1.2 | 0.04 | 1.4
CN1CCC(CN(C)CCCOC(=O)Cc2ccccc2Nc2c(Cl)cccc2Cl)(SN=O)CC1 [Example 12, 3-(Methyl{[1-methyl-4-(nitrosothio)(4-piperidyl)]methyl}amino)propyl 2-{2-[(2,6-dichlorophenyl)amino]pheny}acetate] | – | – | – | – | 0.06 | –
COc1ccc2cc([C@H](C)C(=O)OCCC3(SN=O)CCN(C)CC3)ccc2c1.O=C(O)CC(O)(CC(=O)O)C(=O)O [Example 15, 2-[1-Methyl-4-(nitrosothio)-4-piperidyl]ethyl (2S) 2-(6-methoxy(2-naphthyl)) propanoate citrate] | – | – | 0.1 (100 μmole/Kg) | 1 | – | 1
COc1ccc2c(c1)c(CC(=O)OCCC1(SN=O)CCN(C)CC1)c(C)n2C(=O)c1ccc(Cl)cc1.O=C(O)CC(O)(CC(=O)O)C(=O)O [Example 17, 2-[1-Methyl-4-(nitrosothio)-4-piperidyl]ethyl 2{1-[(4-chlorophenyl)carbonyl]-5-methoxy-2-methylindol-3-yl}acetate citrate] | – | – | <0.07 (100 μmole/Kg) | 1 | – | –
CN(Cc1ccc(OC(=O)Cc2ccccc2Nc2c(Cl)cccc2Cl)cc1)CC(C)(C)SN=O [Example 33, 4-({Methyl[2-methyl-2-(nitrosothio)propyl]amino}methyl)phenyl 2-{2-[(2,6-dichlorophenyl)amino]phenyl}acetate] | – | – | – | 1 | – | 1

Now from value to compound, other results behind:

melting point | Relative Activity Gastric Lesion (gastric lesion; rat, in vivo, po) | Relative Activity Gastric Lesion (gastric lesion; [4]) | Compound | Relative Activity Analgesia [1] | Relative Activity Gastric Lesion (gastric lesion; [3]) | Relative Activity Antiinflammation [2]
130 °C | – | – | CN1CCC(CCOC(=O)Cc2ccccc2Nc2c(Cl)cccc2Cl)(SN=O)CC1 (as salt: citrate) [Example 13, 2-[1-Methyl-4-(nitrosothio)-4-piperidyl]ethyl 2-{2-[(2,6-dichlorophenyl)amino]phenyl}acetate citrate] | – | – | –
– | 0.01 | – | CN(CCCOC(=O)Cc1ccccc1Nc1c(Cl)cccc1Cl)CC1(SN=O)CCCCC1 [Example 4, 3-{Methyl{[(nitrosothio)cyclohexyl]methyl}amino)propyl 2-{2-[(2,6-dichlorophenyl)amino]phenyl}acetate] | 0.9 | – | 1.3
– | – | 0.1 (100 μmole/Kg) | CN1CCC(CCOC(=O)Cc2ccccc2Nc2c(Cl)cccc2Cl)(SN=O)CC1 [Example 13, 2-[1-Methyl-4-(nitrosothio)-4-piperidyl]ethyl 2-{2-[(2,6-dichlorophenyl)amino]phenyl}acetate citrate] | – | – | 1
– | – | 0.1 (100 μmole/Kg) | COc1ccc2cc([C@H](C)C(=O)OCCN(C)CC3(SN=O)CCN(C)CC3)ccc2c1.Cl [Example 22, 2-(Methyl{[1-methyl-4-(nitrosothio)(4-piperidyl)]methyl}amino)ethyl (2S)-2-(6-methoxy(2-naphthyl))propanoate hydrochloride] | 1 | – | 1
– | – | 0.02 (100 μmole/Kg) | CN(CCSC(=O)Cc1ccccc1Nc1c(Cl)cccc1Cl)CC(C)(C)SN=O.Cl [Example 31, 2-{2-[(2,6-Dichlorophenyl)amino]phenyl}-1-(2-{methyl[2-methyl-2-(nitrosothio)propyl]amino}ethylthio)ethan-1-one hydrochloride] | 1 | – | 1
116 to 117 °C | – | – | COc1ccc2cc([C@H](C)C(=O)OCCCN3C(=O)OC[C@H]3C(C)(C)SN=O)ccc2c1 [Example 44, 3-{(4S)-4-[1-Methyl-1-(nitrosothio)ethyl]-2-oxo-1,3-oxazolidin-3-yl}propyl (2S)-2-(6-methoxy(2-naphthyl))propanoate] | – | – | –
> 180 °C (dec.) | – | – | COc1ccc2cc([C@H](C)C(=O)OC[C@@H]3NC(=O)[C@@H](C(C)(C)SN=O)NC3=O)ccc2c1 [Example 47, {(2S,5S)-5-[1-Methyl-1-(nitrosothio)ethyl]-3,6-dioxopiperazin-2-yl}methyl (2S)-2-(6-methoxy(2-naphthyl))propanoate] | – | – | –

From patent US6593347B2, “Nitrosated and nitrosylated nonsteroidal antiinflammatory compounds, compositions and methods of use” (NitroMed, Inc., priority 1998, dated 2003)
